Measurements reported in PubChem BioAssay (NCI).
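A five-concentration, 48-hour dose response in 96-well plates underlies each endpoint, interpolated linearly between surrounding concentrations. TGI denotes the concentration required for complete inhibition of growth.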

Experiments:
Assay in all cases: NCI anticancer screen, dose series, 48 h
SNB-78 CNS = system: SNB-78 CNS
A549 NSCLC = system: A549 NSCLC
LOX IMVI melanoma = system: LOX IMVI melanoma
DMS 273 small cell lung = system: DMS 273 small cell lung
XF 498 CNS = system: XF 498 CNS
DLD-1 colon = system: DLD-1 colon
M19-MEL melanoma = system: M19-MEL melanoma
CAKI-1 renal = system: CAKI-1 renal
UACC-257 melanoma = system: UACC-257 melanoma
DMS 114 small cell lung = system: DMS 114 small cell lung
LXFL 529 NSCLC = system: LXFL 529 NSCLC
KM20L2 colon = system: KM20L2 colon
EKVX NSCLC = system: EKVX NSCLC
HOP-18 NSCLC = system: HOP-18 NSCLC
RXF-631 renal = system: RXF-631 renal
PC-3 prostate = system: PC-3 prostate
MCF7 breast = system: MCF7 breast

Row | Compound | TGI (SNB-78 CNS) | TGI (A549 NSCLC) | TGI (LOX IMVI melanoma) | TGI (DMS 273 small cell lung) | TGI (XF 498 CNS) | TGI (DLD-1 colon) | TGI (M19-MEL melanoma) | TGI (CAKI-1 renal) | TGI (UACC-257 melanoma) | TGI (DMS 114 small cell lung) | TGI (LXFL 529 NSCLC) | TGI (KM20L2 colon) | TGI (EKVX NSCLC) | TGI (HOP-18 NSCLC) | TGI (RXF-631 renal) | TGI (PC-3 prostate) | TGI (MCF7 breast)
1 | Cc1ccc(S(=O)(=O)c2c(N)c3nccn3c3nc4ccccc4nc23)cc1 | > 100 µM | > 100 µM | > 100 µM | > 100 µM | > 100 µM | > 100 µM | > 100 µM | > 100 µM | > 100 µM | > 100 µM | > 100 µM | > 100 µM | > 100 µM |  |  |  | 
2 | Cc1c(/C=N/NC(=O)c2ccccc2)c(=O)n(-c2ccccc2)n1C | > 100 µM | > 100 µM | > 100 µM | > 100 µM | > 100 µM | > 100 µM | > 100 µM |  | > 100 µM | > 100 µM | > 100 µM | > 100 µM | > 100 µM | > 100 µM |  |  | 
3 | COc1nc(/C=N/NC(N)=S)nc(OC)n1 | > 100 µM | > 100 µM |  | > 100 µM | > 100 µM | > 100 µM | > 100 µM | > 100 µM | > 100 µM | > 100 µM | > 100 µM | > 100 µM | > 100 µM | > 100 µM | > 100 µM |  | 
4 | CN(C)CCSC(=Nc1ccccc1)N1C=COC=C1 | 90.1 µM | > 100 µM | 31.8 µM | 35.7 µM | 85.3 µM | 32.4 µM | 32.5 µM | > 100 µM | 33.8 µM | 27.9 µM | 30.6 µM | > 100 µM | > 100 µM | > 100 µM |  | 95.5 µM | 33.9 µM
5 | Cc1ccccc1N=Cc1ccc(N(CCC#N)S(=O)(=O)c2ccccc2)cc1 | > 100 µM | > 100 µM | > 100 µM | > 100 µM | > 100 µM | > 100 µM | > 100 µM | > 100 µM | > 100 µM | > 100 µM | > 100 µM | > 100 µM | > 100 µM | > 100 µM | > 100 µM |  | 
6 | CC(C)=CCC/C(C)=C/CC/C(C)=C/CC/C=C(\C)CC/C=C(\C)CCC1SC1(C)C (centres undefined) | > 100 µM | > 100 µM | > 100 µM | > 100 µM |  | > 100 µM | > 100 µM | > 100 µM | > 100 µM | > 100 µM | > 100 µM | > 100 µM | > 100 µM | > 100 µM |  |  | 
7 | C=C1C(=O)OC2C[C@H](C)C3CC(=O)C(C)=C3CC12 (some centres undefined) | 44.1 µM | 69.1 µM | 30.4 µM | 32.5 µM | 30.1 µM | 21.5 µM | 27.8 µM | 18.2 µM | 28.6 µM | 32.2 µM | 24.7 µM | 33.5 µM | 32.8 µM |  |  |  | 
8 | CC(N)C(=O)c1ccc(O)cc1 (centres undefined) | > 100 µM | > 100 µM | > 100 µM | > 100 µM |  | > 100 µM |  | > 100 µM | > 100 µM | > 100 µM | > 100 µM | > 100 µM | > 100 µM | > 100 µM | > 100 µM |  | 
9 | CNc1nnnn1C1OC(CO)C(O)C1O (centres undefined) | > 100 µM | > 100 µM | > 100 µM | > 100 µM | 83.4 µM | > 100 µM | > 100 µM | > 100 µM | > 100 µM | > 100 µM | > 100 µM | > 100 µM | > 100 µM |  | > 100 µM |  | 
